According to ChEMBL document CHEMBL1126769, “Synthesis and kappa-opioid antagonist selectivity of a norbinaltorphimine congener. Identification of the address moiety required for kappa-antagonist activity” (J Med Chem, 1993):

Tests used:
[1] = target: Kappa-type opioid receptor (Cavia porcellus, UniProt P41144); assay: Inhibitory activity against kappa-opioid receptor in guinea pig ileum longitudinal muscle using ethylketazocine; type: tissue-based
Mu-type opioid receptor = Mu-type opioid receptor (Cavia porcellus, UniProt P97266); assay: Inhibitory activity against mu-opioid receptor in guinea pig ileum longitudinal muscle using morphine; type: tissue-based
Chain of Mu-type opioid receptor (P97266 whole entry): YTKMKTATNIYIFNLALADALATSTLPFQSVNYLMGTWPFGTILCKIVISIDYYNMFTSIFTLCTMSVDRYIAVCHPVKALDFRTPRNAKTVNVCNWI

[2] = target: Delta-type opioid receptor (Mus musculus, UniProt P32300); assay: Inhibitory activity against delta-opioid receptor in mouse vas deferens preparation using DADLE
Chain of Delta-type opioid receptor (P32300 whole entry): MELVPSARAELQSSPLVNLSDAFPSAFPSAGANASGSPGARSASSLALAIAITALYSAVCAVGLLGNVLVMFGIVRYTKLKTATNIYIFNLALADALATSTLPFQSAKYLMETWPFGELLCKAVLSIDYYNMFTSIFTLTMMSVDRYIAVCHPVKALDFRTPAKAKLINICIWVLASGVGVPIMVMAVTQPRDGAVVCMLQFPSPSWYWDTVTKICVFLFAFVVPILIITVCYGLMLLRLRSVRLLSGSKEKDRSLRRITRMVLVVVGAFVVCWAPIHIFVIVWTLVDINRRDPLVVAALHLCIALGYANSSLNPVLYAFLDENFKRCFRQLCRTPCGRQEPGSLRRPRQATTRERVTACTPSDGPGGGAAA

[3] = target: Opioid receptors; mu & kappa (Homo sapiens) (UniProt P41145+P35372); assay: Selectivity ratio between kappa-opioid receptor to mu-opioid receptor; type: protein assay
Chain of Opioid receptors; mu & kappa (Homo sapiens) (P35372 whole entry, looked up): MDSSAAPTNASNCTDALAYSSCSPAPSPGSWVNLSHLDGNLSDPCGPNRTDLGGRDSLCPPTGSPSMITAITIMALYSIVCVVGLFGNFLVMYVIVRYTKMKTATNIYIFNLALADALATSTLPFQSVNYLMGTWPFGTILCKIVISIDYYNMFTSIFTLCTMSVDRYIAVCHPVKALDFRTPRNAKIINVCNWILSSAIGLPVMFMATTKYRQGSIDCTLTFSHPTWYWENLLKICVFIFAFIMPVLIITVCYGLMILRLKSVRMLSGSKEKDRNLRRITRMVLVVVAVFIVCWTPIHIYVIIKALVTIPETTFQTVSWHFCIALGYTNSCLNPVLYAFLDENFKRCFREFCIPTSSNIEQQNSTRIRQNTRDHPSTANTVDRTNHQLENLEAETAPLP
Chain of Opioid receptors; mu & kappa (Homo sapiens) (P41145 whole entry, looked up): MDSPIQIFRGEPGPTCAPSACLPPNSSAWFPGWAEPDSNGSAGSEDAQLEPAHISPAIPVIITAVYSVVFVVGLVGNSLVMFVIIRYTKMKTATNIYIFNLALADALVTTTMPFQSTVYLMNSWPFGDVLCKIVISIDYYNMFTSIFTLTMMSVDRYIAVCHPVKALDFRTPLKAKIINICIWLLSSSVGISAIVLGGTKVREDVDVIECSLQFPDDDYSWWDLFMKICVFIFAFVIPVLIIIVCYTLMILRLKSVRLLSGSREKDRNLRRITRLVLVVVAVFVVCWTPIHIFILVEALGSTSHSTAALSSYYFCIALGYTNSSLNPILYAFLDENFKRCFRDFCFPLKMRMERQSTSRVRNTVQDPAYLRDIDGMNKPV

[4] = target: Opioid receptors; delta & kappa (Homo sapiens) (UniProt P41145+P41143); assay: Selectivity ratio between kappa-opioid receptor to delta-opioid receptor; type: protein assay
Chain of Opioid receptors; delta & kappa (Homo sapiens) (P41143 whole entry, looked up): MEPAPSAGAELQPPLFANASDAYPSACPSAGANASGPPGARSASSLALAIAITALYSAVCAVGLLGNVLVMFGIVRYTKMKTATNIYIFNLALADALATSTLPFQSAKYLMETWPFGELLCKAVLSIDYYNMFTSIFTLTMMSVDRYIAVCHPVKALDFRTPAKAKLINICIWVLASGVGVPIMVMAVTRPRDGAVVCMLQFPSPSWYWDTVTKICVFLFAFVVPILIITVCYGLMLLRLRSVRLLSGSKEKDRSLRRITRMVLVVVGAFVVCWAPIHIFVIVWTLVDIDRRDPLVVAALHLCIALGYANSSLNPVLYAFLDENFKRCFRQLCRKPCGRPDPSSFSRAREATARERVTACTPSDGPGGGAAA
Chain of Opioid receptors; delta & kappa (Homo sapiens) (P41145 whole entry, looked up): as the sequence (P41145 whole entry, looked up) above

Chain of Kappa-type opioid receptor (P41144 whole entry): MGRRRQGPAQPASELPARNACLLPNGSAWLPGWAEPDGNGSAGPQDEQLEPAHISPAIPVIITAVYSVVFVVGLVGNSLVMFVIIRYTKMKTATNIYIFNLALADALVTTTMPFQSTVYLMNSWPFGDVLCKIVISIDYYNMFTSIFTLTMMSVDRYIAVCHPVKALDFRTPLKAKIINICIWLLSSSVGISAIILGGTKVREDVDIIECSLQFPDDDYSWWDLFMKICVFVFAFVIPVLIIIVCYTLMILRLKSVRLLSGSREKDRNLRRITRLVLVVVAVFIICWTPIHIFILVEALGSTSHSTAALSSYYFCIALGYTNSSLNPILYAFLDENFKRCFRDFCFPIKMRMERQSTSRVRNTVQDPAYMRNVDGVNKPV

SMILES: Cn1c2c(c3c1[C@@H]1Oc4c(O)ccc5c4[C@@]14CCN(CC1CC1)[C@H](C5)[C@]4(O)C3)C[C@H]1CNCC[C@@H]1C2
- IC50 [1]: 40 nM
- IC50 (Mu-type opioid receptor): 1 nM
- IC50 [2]: 1.1 nM
- Ratio [3]: 40
- Ratio [4]: 36

SMILES: Cn1c2c(c3c1[C@@H]1Oc4c(O)ccc5c4[C@@]14CCN(CC1CC1)[C@H](C5)[C@]4(O)C3)C[C@H]1CN(C(=O)OCc3ccccc3)CC[C@@H]1C2
- IC50 [1]: 1.6 nM
- IC50 (Mu-type opioid receptor): 1.7 nM
- IC50 [2]: 9.2 nM
- Ratio [3]: 0.9
- Ratio [4]: 0.2

SMILES: Oc1ccc2c3c1O[C@H]1c4[nH]c5c(c4C[C@@]4(O)[C@@H](C2)N(CC2CC2)CC[C@]314)C[C@@]1(O)[C@H]2Cc3ccc(O)c4c3[C@@]1(CCN2CC1CC1)[C@H]5O4 [NORBINALTORPHIMINE]
- IC50 [1]: 181 nM
- IC50 (Mu-type opioid receptor): 8.3 nM
- Ratio [3]: 22
- Ratio [4]: 17
